In the oligonucleotide strings, read from the 5' end, every base follows the letter of its sugar. An asterisk marks phosphorothioate; unmarked linkages are phosphodiester. Other units and linkages are bracketed, terminal groups are in braces. A string of capitals states the bases alone. e = 2'-O-(2-methoxyethyl) (MOE); [5mC] = 5-methylcytosine
What was measured:
human bcl-x mRNA [1] = assay: Total bcl-x mRNA and bcl-xs/bcl-xl ratio in A549 cells, RNase protection; type: cell-based
human bcl-x mRNA [2] = assay: as above; type: cell-based; conditions: for ratio of bcl-xs/bcl-xl: Oligo Concentration 200 (unit not given); for bcl-xs/bcl-xl: 200 nM oligonucleotide (Table 15)
Text: (§1) In accordance with the present invention, a series of oligonucleotides were designed to target different regions of human bcl-x RNA, using published sequences (Boise, L. H., et al., 1993, Cell 74, 597-608; Genbank Accession No. L20121, locus name “HSBCLXL,” incorporated herein as SEQ ID NO: 39). Antisense oligonucleotides were designed to target areas of exon 1 and exon 2 of human bcl-x, particularly around the exon 1/exon 2 splice site and in sequence regions present in bcl-xl but not in bcl-xs. All backbone linkages are phosphorothioates; All 2′MOE cytosines are 5-methylcytosines.
(§2) Oligonucleotides were evaluated for their respective effects on bcl-xs and bcl-xl3 mRNA levels in A549 cells along with total bcl-x mRNA levels, using the RIBOQUANT™ RNase protection kit (Pharmingen, San Diego Calif.). All assays were performed according to manufacturer's protocols.
(§3) A “walk” was done in this region with 20mer 2′-MOE phosphorothioate oligonucleotides targeted to sequences whose 5′ ends were 24, 26, 29, 31, 33, 37, 39, 41, 43, 44, 45 and 47 bases upstream of the splice site. These oligonucleotides were screened as before at a dose of 200 nM oligonucleotide for effect on short and long bcl-x transcripts.

E-selectin mRNA = assay: Non-quantitative RT-PCR of E-selectin Type I, II and III transcripts in HUVEC; type: cell-based, human; conditions: relative to untreated cells, 200 nM stated for ISIS 106344
Experimental: (§4) Total RNA was harvested from HUVEC at various times following TNF-α induction using a ToTALLY RNA kit (Ambion) according to the manufacturer's protocol). For Northern blots, RNA was separated on a 1.2% agarose gel containing 1.1% formaldehyde, then transferred to nylon membranes. Blots were hybridized with [^32P]-dCTP random prime labeled cDNA probes specific for E-selectin or […] (G3PDH) for 2 hours in Rapid-hyb solution (Amersham). Blots were washed with 2×SSC containing 0.1% SDS at room temperature, followed by 0.1×SSC containing 0.1% SDS at 60° C. Quantitation of RNA expression was performed using a Molecular Dynamics PhosphorImager. Anchored reverse transcriptase polymerase chain reaction (RT/PCR) was performed essentially as described by Chu et al. (supra.).
To determine if processing could be controlled more specifically, oligonucleotides were also designed to the upstream polyadenylation signals. Non-quantitative RT-PCR was used to distinguish among the three forms of the message. In the absence of oligonucleotide, all three types of transcript were detected. […] This difference may be due to variation in the efficiency of PCR amplification on the varying length products, with the shorter Type I and II messages being more efficiently amplified than the Type III product. […] To determine if the effects of ISIS 106344 were unique, antisense oligonucleotides were designed to the Type I and Type II polyadenylation sites.
To evaluate whether treatment with two oligonucleotides would result in the production of a single species of E-selectin message, HUVEC were treated with ISIS 106344, and either ISIS 135568 or ISIS 135570 (150 nM each). […] Cells were also treated with both ISIS 135568 and ISIS 135570.

human bcl-xl mRNA = assay: bcl-xl mRNA in A549 cells, RIBOQUANT RNase protection; type: cell-based; conditions: 200 nM oligonucleotide (Table 15)
Text: as §1, §2, §3

human bcl-xs mRNA = assay: bcl-xs mRNA in A549 cells, RIBOQUANT RNase protection; type: cell-based; conditions: 200 nM oligonucleotide (Table 15)
Text: as §1, §2, §3

[3] = test system: E-selectin mRNA (Type III polyadenylation signal and site); assay: E-selectin transcript forms by Northern blot in TNF-α-induced HUVEC; type: cell-based, human; conditions: increasing oligonucleotide dose, TNF-α 2 hours
Experimental: HUVEC (Clonetics, San Diego, Calif.) were cultivated in endothelial basal media supplemented with 10% fetal bovine serum. Cells were treated with oligonucleotides as described previously (Chiang, 1991, J. Biol. Chem. 27:18162-18171; Vickers, 2000, Nucleic Acids Res. 28:1340-1347). Briefly, cells were incubated with a mixture of Lipofectin (Gibco BRL, Gaithersburg, Md.) and oligonucleotide for 4 hours. Cells were incubated for 2-24 hours, then treated with 5 ng/ml TNF-α for 2-3 hours to induce expression of E-selectin. Cells were then washed extensively with phosphate buffered saline (PBS), fresh complete media was added and cells were incubated at 37° C. until harvested.
as §4
HUVEC were treated with 2′-O-methoxyethyl (MOE)/phosphorothioate antisense oligonucleotides directed to the Type III polyadenylation signal and site (Table 1A) as described above. After about 24 hours, cells were treated with TNF-α to induce E-selectin expression. Cells were harvested after 2 hours and RNA was isolated. E-selectin expression was analyzed by Northern blotting. […] With increasing oligonucleotide dose, the longer Type III message decreased while a shorter message increased (FIG. 2). This shorter message most likely represents a combination of Type I and II messages, because the Type II message is just 158 bases longer than the Type I message, and the difference in sizes cannot be resolved on the gel which was used.

TF-1 cells [4] = assay: Apoptosis induction in TF-1 cells, Annexin-V staining; type: cell-based, human; conditions: 48 hours, IL-5 0.5 ng/ml
Experimental: 1×10^6 TF-1 cells cultured in IL-5 (0.5 ng/ml) were collected 48 hours following oligonucleotide treatment (transfection was by electroporation as described in previous examples) and phosphatidylserine expression was detected as a measure of apoptosis using the Annexin-V staining kit (Clontech, Palo Alto, Calif.) according to the manufacturer's instructions. Briefly, cells were resuspended in 0.2 ml of staining buffer (10 mM Hepes, pH 7.4, 140 mM NaCl, 5 mM CaCl2) and […] of propidium iodide (50 μg/ml) and 5 μl of Annexin V reagent were added at 4° C. for 10 minutes. The samples were diluted with FacsFlow (Becton Dickinson, Franklin Lakes N.J.) buffer and analyzed on a Becton Dickinson FACScan.

TF-1 cells [5] = assay: IL-5-induced TF-1 cell proliferation, [3H]-thymidine incorporation; type: cell-based, human; conditions: for % of control thymidine incorporation: compared to untreated controls
Experimental: 2.5×10^4 TF-1 cells were incubated in 96-well plates in 200 μl complete RPMI in the absence of IL-5 for 16 hours following electroporation. IL-5 (0.5 ng/ml) was added and the cultures were pulsed with 1 μCi of [^3H]-thymidine for the last 8 hours of a 48-hour culture period. The cells were harvested on glass fiber filters and analyzed for thymidine incorporation (proportional to cell proliferation) by liquid scintillation counting.
Results are compared to thymidine incorporation in untreated controls.

Human IL-5 receptorα = Human IL-5 receptorα protein expression on the cell surface (36 hr), TF-1 cells; type: cell-based; set-up: % INHIB, human IL-5 receptorα protein on the cell surface / % of CONTROL, human IL-5 receptorα protein on the cell surface: concentration or dose not given beside the values
Text: (§5) A series of oligonucleotides were designed to target various splice sites or (intron-exon boundaries) in the IL-5 receptor mRNA.
ISIS 16746, 16748, 16755 and 16758 inhibited human IL-5 receptorα protein by over 50% in this assay and are therefore preferred. ISIS 16758 and 16755 were chosen for further study.

[6] = test system: Human IL-5 receptorα membrane form mRNA; assay: Human IL-5 receptorα membrane form mRNA expression (18 hr); type: cell-based; set-up: % INHIB'N, human IL-5 receptorα membrane form mRNA / % of CONTROL, human IL-5 receptorα membrane form mRNA: concentration or dose not given beside the values
Text: mRNA transcripts encoding the membrane form of the human IL-5 receptorα contain exons 1-10 and 12-14. Exon 11 is spliced out. It is, therefore, possible to target sequences in exons 1-10 which are common to both soluble and membrane forms of the receptor, or to selectively target sequences only present in the membrane form (exons 12-14). Oligonucleotides were also designed to target various intron/exon boundaries downstream of exon 11, with the intention of preventing successful splicing out of exon 11 and thus redirecting splice products away from the membrane form and in favor of the soluble form of IL-5 receptorα.
as §5

[7] = Oligo Concentration 400 (unit not given)
[8] = Oligo Concentration 600 (unit not given)
[9] = Oligo Concentration 50 (unit not given)
[10] = Oligo Concentration 100 (unit not given)

## 26080 (antisense CTGGTTACACGACTCCAGGT; mismatch control, further chemistry not given here) [compound 26080]
Human bcl-x mRNA [1]; [7]
  ratio of bcl-xs/bcl-xl: 1
Human bcl-x mRNA [1]; [8]
  ratio of bcl-xs/bcl-xl: 3
Human bcl-x mRNA [2]
  ratio of bcl-xs/bcl-xl: <1

## ISIS 135568: GCTTTTATTAGTTCAAAACGTTTGG, SEQ ID 70; E-selectin Type II poly(A) signal (all 2'-MOE, all phosphorothioate, methylation of C not given here)
E-selectin mRNA
  Type I E-selectin message (RT-PCR): corresponding increases
  Type II E-selectin message (RT-PCR): sharp decrease
  Type III E-selectin message (RT-PCR): corresponding increases

## 26066 (ATCCAAGGCTCTAGGTGGTC; all 2'-MOE, all phosphorothioate, methylation of C not given here) [compound 26066]
Human bcl-x mRNA [1]; [9]
  ratio of bcl-xs/bcl-xl: 6
Human bcl-x mRNA [1]; [10]
  ratio of bcl-xs/bcl-xl: 11
Human bcl-x mRNA [1]; [7]
  ratio of bcl-xs/bcl-xl: 25
Human bcl-xl mRNA
  % CONTROL bcl-xl: 26%
Human bcl-x mRNA [2]; A549 cells
  bcl-xs/bcl-xl: 15.38
Human bcl-x mRNA [2]
  ratio of bcl-xs/bcl-xl: 24
Human bcl-xs mRNA
  % CONTROL bcl-xs: 400%

## ISIS 135570: CAGAACTTTATTCTGGTTAACATCATG, SEQ ID 71; E-selectin Type I poly(A) signal (all 2'-MOE, all phosphorothioate, methylation of C not given here)
E-selectin mRNA
  Type I E-selectin message (RT-PCR): greatly reduced
  Type II E-selectin message (RT-PCR): increased
  Type III E-selectin message (RT-PCR): increased

## 22783 (e[5mC]*eT*eG*eG*eA*eT*e[5mC]*e[5mC]*eA*eA*eG*eG*e[5mC]*eT*e[5mC]*eT*eA*eG*eG*eT) [compound 22783]
Human bcl-x mRNA [1]; [9]
  ratio of bcl-xs/bcl-xl: 3
Human bcl-x mRNA [1]; [10]
  ratio of bcl-xs/bcl-xl: 2
Human bcl-x mRNA [1]; [7]
  ratio of bcl-xs/bcl-xl: 24
Human bcl-x mRNA [1]; [8]
  ratio of bcl-xs/bcl-xl: 28
Human bcl-xl mRNA
  % CONTROL bcl-xl: 47%
Human bcl-x mRNA [2]; A549 cells
  bcl-xs/bcl-xl: 5.25
Human bcl-x mRNA [2]; A549 cells, no oligo 17.56
  bcl-xs/bcl-xl (%): 293.1%
Human bcl-x mRNA [2]
  ratio of bcl-xs/bcl-xl: 7
Human bcl-xs mRNA
  % CONTROL bcl-xs: 247%

## ISIS 106345: AGAAAGAGACTTAACACAGA, SEQ ID 67; uniformly 2′-MOE phosphorothioate; E-selectin Type III poly(A) site (all 2'-MOE, all phosphorothioate, methylation of C not given here)
[3]
  longer Type III E-selectin message (Northern blot): decreased
  shorter E-selectin message (Type I and II) (Northern blot): increased

## SEQ ID NO 54: CTCTAGGTGGTCATTCAGGT; 20mer 2′-MOE phosphorothioate, no ISIS # printed; Exon 1L 652-671 (all 2'-MOE, all phosphorothioate, methylation of C not given here)
Human bcl-xl mRNA
  % CONTROL bcl-xl: 42%
Human bcl-x mRNA [2]; A549 cells
  bcl-xs/bcl-xl: 7.14
Human bcl-xs mRNA
  % CONTROL bcl-xs: 300%

## 26070 (antisense GTTCTCCTGGATCCAAGGCT; all 2'-MOE, all phosphorothioate, methylation of C not given here) [compound 26070]
Human bcl-xl mRNA
  % CONTROL bcl-xl: 37%
Human bcl-x mRNA [2]; A549 cells
  bcl-xs/bcl-xl: 6.54
Human bcl-xs mRNA
  % CONTROL bcl-xs: 242%

## 18011 (eT*e[5mC]*eA*eG*e[5mC]*eA*eG*eT*eT*eA*e[5mC]*eT*eT*eG*eT*eG*eT*eA*eA*eA) [compound 18011]
TF-1 cells [4]; oligo dose 10 μM
  % Apoptotic cells: 19%
TF-1 cells [4]; oligo dose 15 μM
  % Apoptotic cells: 23.6%
TF-1 cells [4]; oligo dose 20 μM
  % Apoptotic cells: 21.8%
TF-1 cells [5]; oligo dose 10 μM
  % of control thymidine incorporation: 95.6%
TF-1 cells [5]; oligo dose 15 μM
  % of control thymidine incorporation: 97.9%
TF-1 cells [5]; oligo dose 20 μM
  % of control thymidine incorporation: 84.6%

## ISIS 16758: TCATCATTTCCTGGTGGAAA, SEQ ID 35; I11/E12; uniform 2′-MOE (antisense eT*e[5mC]*eA*eT*e[5mC]*eA*eT*eT*eT*e[5mC]*e[5mC]*eT*eG*eG*eT*eG*eG*eA*eA*eA)
Human IL-5 receptorα; 36 hr
  % INHIB, human IL-5 receptorα protein on the cell surface: over 50%
Human IL-5 receptorα; TF-1 cells, read-out: IC50 for reduction of IL-5 receptorα cell surface protein
  IC50: ~5 µM
[6]
  effect on IL-5 receptorα mRNA levels: without reducing mRNA levels
TF-1 cells [5]; TF-1 cells
  cell proliferation in response to IL-5 (summary): greatly reduces cellular response to IL-5

## 26067 (GGATCCAAGGCTCTAGGTGG; all 2'-MOE, all phosphorothioate, methylation of C not given here) [compound 26067]
Human bcl-xl mRNA
  % CONTROL bcl-xl: 32%
Human bcl-x mRNA [2]; A549 cells
  bcl-xs/bcl-xl: 6.59
Human bcl-xs mRNA
  % CONTROL bcl-xs: 211%

## 16758 (antisense eT*e[5mC]*eA*eT*e[5mC]*eA*eT*eT*eT*e[5mC]*e[5mC]*eT*eG*eG*eT*eG*eG*eA*eA*eA) [compound 16758]
TF-1 cells [4]; oligo dose 10 μM
  % Apoptotic cells: 33.1%
TF-1 cells [4]; oligo dose 15 μM
  % Apoptotic cells: 40.1%
TF-1 cells [4]; oligo dose 20 μM
  % Apoptotic cells: 50.4%
Human IL-5 receptorα; 36 hr
  % INHIB, human IL-5 receptorα protein on the cell surface: 94.5%
  % of CONTROL, human IL-5 receptorα protein on the cell surface: 5.5%
[6]; 18 hr
  % of CONTROL, human IL-5 receptorα membrane form mRNA: 176%
TF-1 cells [5]; oligo dose 10 μM
  % of control thymidine incorporation: 42.8%
TF-1 cells [5]; oligo dose 15 μM
  % of control thymidine incorporation: 39.2%
TF-1 cells [5]; oligo dose 20 μM
  % of control thymidine incorporation: 19.9%
